In ChEMBL document CHEMBL2434955, “Potent inhibition of norovirus by dipeptidyl α-hydroxyphosphonate transition state mimics” (Bioorg Med Chem Lett, 2013) one finds EC50, IC50 and inhibition data, which are given here for eight molecules.

In one experiment the test system is Norovirus. The experiment in a line: Antiviral activity against Norovirus in cell-based replicon system. For orientation: Replicon systems follow genome replication, usually without infectious particles.
Experiment [1] concerns Norovirus 3CL protease (Norovirus). The experiment in a line: Inhibition of Norovirus 3CL protease by FRET assay.
Another experiment concerns the target Trypsin (Homo sapiens) (UniProt P07477+P07478+P35030). Kind of experiment: Inhibition of trypsin (unknown origin) at 125 uM after 30 mins. Format: protein assay.
For experiment [2], the species on record is Homo sapiens. The experiment in a line: Inhibition of alpha-chymotrypsin (unknown origin) at 2.5 uM after 30 mins.
Experiment [3] is filed under the species Homo sapiens. Kind of experiment: Inhibition of human neutrophil elastase at 17.5 uM after 30 mins.
For experiment [4], the target named is T1, Carboxypeptidase A1 (Homo sapiens) (UniProt P15085).
T1 sequence (whole entry): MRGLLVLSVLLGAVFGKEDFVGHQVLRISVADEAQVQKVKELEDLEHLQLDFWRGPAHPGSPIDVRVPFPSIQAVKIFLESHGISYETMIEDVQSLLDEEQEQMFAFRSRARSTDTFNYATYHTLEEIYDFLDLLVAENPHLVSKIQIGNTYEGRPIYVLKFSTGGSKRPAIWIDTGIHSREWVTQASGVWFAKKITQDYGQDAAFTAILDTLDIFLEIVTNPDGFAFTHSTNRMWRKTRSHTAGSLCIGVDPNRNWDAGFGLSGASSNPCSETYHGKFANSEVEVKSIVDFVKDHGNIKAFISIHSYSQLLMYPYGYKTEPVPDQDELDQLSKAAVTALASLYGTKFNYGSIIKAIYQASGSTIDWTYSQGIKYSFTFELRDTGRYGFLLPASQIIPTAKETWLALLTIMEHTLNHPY
The experiment in a line: Inhibition of carboxypeptidase A (unknown origin) at 43 uM after 30 mins.

Experiment [5] has as its target Prothrombin (Homo sapiens) (UniProt P00734). Kind of experiment: Inhibition of thrombin (unknown origin) at 2.75 uM after 30 mins.

In the case of `O=C(N[C@@H](CC1CCCCC1)C(=O)N[C@@H](CC1CCNC1=O)C(O)P(=O)(OCc1ccccc1)OCc1ccccc1)OCc1ccccc1` (mixture of isomers), a half-maximal effect in the experiment with Norovirus (EC50) was put at 0.6 µM.

For `CCOP(=O)(OCC)C(O)[C@H](CC1CCNC1=O)NC(=O)[C@H](CC(C)C)NC(=O)OCc1ccccc1` (mixture of isomers), inhibition in experiment [1] was half-maximal at 11.5 µM (IC50). In the experiment on Norovirus, the EC50 (in general, the concentration that produces a half-maximal response) came to 0.8 µM.

For `COP(=O)(OC)C(O)[C@H](CC1CCNC1=O)NC(=O)[C@H](CC(C)C)NC(=O)OCc1ccccc1` (mixture of isomers), the IC50 (in general, the point on the concentration scale where inhibition reaches its midpoint) in experiment [1] turned out to be 20.2 µM. The EC50 in the experiment with Norovirus was determined as 3.5 µM.

In turn, `CC(C)C[C@H](NC(=O)OCc1ccccc1)C(=O)N[C@@H](CC1CCNC1=O)C(O)P(=O)(O)O` (mixture of isomers) showed an EC50 with Norovirus of 7.5 µM.

`CCOP(=O)(OCC)C(O)[C@H](CC1CCNC1=O)NC(=O)[C@H](CC1CCCCC1)NC(=O)OCc1ccccc1` (mixture of isomers): the inhibition (commonly the change of the read-out against control, counted positive when it falls) at Trypsin (Homo sapiens) stood at 0%; in the experiment filed under Homo sapiens [2], 0%; in the experiment listed under Homo sapiens [3] it was 15%; in experiment [4], 0%; in experiment [5], 0%. The same molecule gave an IC50 in experiment [1] of 3.5 µM. In the experiment with Norovirus, this molecule came in with an EC50 of 0.25 µM.

Take `COP(=O)(OC)C(O)[C@H](CC1CCNC1=O)NC(=O)[C@H](CC1CCCCC1)NC(=O)OCc1ccccc1` (mixture of isomers): it took 8.3 µM to reach half-maximal inhibition in experiment [1] (IC50). Moreover, the response in the experiment on Norovirus was half-maximal at 2.8 µM (EC50).

As to `CCCCOP(=O)(OCCCC)C(O)[C@H](CC1CCNC1=O)NC(=O)[C@H](CC1CCCCC1)NC(=O)OCc1ccccc1` (mixture of isomers), in the experiment on Norovirus, the response was half-maximal at 0.5 µM (EC50). That is a sub-micromolar value.

The molecule `O=C(N[C@@H](CC1CCCCC1)C(=O)N[C@@H](CC1CCNC1=O)C(O)P(=O)(OCC(F)(F)F)OCC(F)(F)F)OCc1ccccc1` (mixture of isomers) yielded an IC50 in experiment [1] of 6.5 µM. In addition, a half-maximal response in the experiment with Norovirus (EC50) required 0.35 µM.
